In a melting point compilation (Tetko et al.; mined from patent text by program, amines drawn as free bases though some values may be those of a salt):

Row | SMILES | melting point
1 | Cc1oc(-c2ccco2)nc1/C=C/c1ccc(C=O)cc1 | 209 to 210 °C
2 | CS(=O)(=O)c1ccc(-c2cnn(C3C4CC5CC(C4)CC3C5)c(=O)c2-c2ccc(F)cc2)cc1 (centres undefined) | 195 to 197 °C
3 | CC(C)(C)C1OCC(S)(CCO)CO1 (centres undefined) | 68 °C
4 | Cn1c(S)nnc1C(O)(c1ccc(Cl)cc1)c1cc2c3c(c1)c(-c1cccc(Cl)c1)cc(=O)n3CO2 (centres undefined) | 193 °C
5 | Cc1cccc(Cl)c1NC(=O)CN1CCN(CCCC(c2ccc(F)cc2)c2ccc(F)cc2)C(CO)C1 (centres undefined) | 150 °C
6 | Cc1cc2c(c(C)c1Br)C(=O)C(C)(C)O2 | 63 to 64 °C
7 | CC1Cc2cc3c(cc2C(C=Cc2ccc(N)cc2)=NN1)OCO3 (centres undefined) | 159 to 161 °C
8 | COc1cc(C(C)C)c(Oc2cnc(N)nc2N)cc1-c1ncon1 | 135 to 138 °C
9 | CCOc1cc2c(cc1S(=O)(=O)NC(=O)NC)C(CNC(=O)N1CC(C)=C(CC)C1=O)CCO2 (centres undefined) | 187 to 188 °C
10 | O=C(O)c1cc(O)c(O)c([N+](=O)[O-])c1 | 224 to 226 °C
11 | Cc1ccc(S(=O)(=O)N2C(C3=NOC(C)N3)CCC2c2ccc(F)cc2)cc1 (centres undefined) | 68 °C
12 | CCCCCCCCCCCCNC(=S)NCCCC | 49 to 55 °C
13 | O=C(Nc1nccs1)C(CC1CCCC1)c1cccc(C(F)(F)F)c1 (centres undefined) | 134 to 136 °C
14 | CN(C)C(=O)c1ccc(NC(=O)C(C)(C)C)cc1C(F)(F)F | 199 to 200 °C
15 | COc1ccc2c(c1)C13CCN(C)C(C2)C1OC(C)(C)OC3 (centres undefined) | 132 to 133 °C
16 | CC(C)(C)OC(=O)Nc1ccc(NC(=O)OC(C)(C)C)c(Br)c1 | 130 °C
17 | O=CNc1ccc(F)c(Cl)c1 | 94 to 97 °C
18 | COc1ccc(C=O)c2cc(C#N)oc12 | 170 to 178 °C
19 | COc1ccc([N+](=O)[O-])c(C=C[N+](=O)[O-])c1OCc1ccccc1 | 118 to 119 °C
20 | Cc1cc(-c2nc3ccccc3c(=O)n2-c2ccc(Cl)cc2)cc(C)c1OCCO | 101 to 103 °C
21 | CC(=O)c1cc(F)c(N)c(C#N)c1F | 182 to 184 °C

Row | SMILES | melting point
22 | CC(C#N)c1ccc(O)c(N)c1 (centres undefined) | 110 to 112 °C
23 | COCC(C)Nc1cc2c(=O)n(NS(C)(=O)=O)c(=O)[nH]c2cc1[N+](=O)[O-] (centres undefined) | 103 to 111 °C
24 | N#CN=C(Nc1cccnc1)NC1(c2cccc(Cl)c2)CCC1 | 102 to 104 °C
25 | O=C1c2ccccc2C(=O)N1CCCN1CCC(c2noc3cc(F)ccc23)CC1 | 128 to 130 °C
26 | O=C(O)CCCc1cc2cc(Cl)ccc2n1S(=O)(=O)c1ccc(N2CCOCC2)nc1 | 78 to 82 °C
27 | CC(C)(C)OC(=O)CC[C@H](NC(=O)c1ccc(NCc2cnc(N)c(C#N)n2)cc1)C(=O)OC(C)(C)C | 71 to 78 °C
28 | CC(O)(c1ccc(F)cc1)c1ccc(-c2ccncc2)cc1 (centres undefined) | 166 to 170 °C
29 | CCCc1cc(=O)oc2cc(OC(=O)CC)cc(O)c12 | 166 to 168 °C
30 | CC(=O)OC1CSC(Oc2cc(-c3ccncc3)cnc2F)C(OC(C)=O)C1OC(C)=O (centres undefined) | 143 to 144 °C
31 | Cc1[nH]cnc1/C=C1\CCc2sc3ccccc3c2C1=O | 220 to 223 °C
32 | COC(=O)C=C1NC(C)(CO)COC1=O (centres undefined) | 62 to 63 °C
33 | CC(C)(C)c1cc(Br)c(O)c(C#N)c1 | 69 to 71 °C
34 | CC(C)n1c(=O)ccc2cnc(Nc3ccc(N4CCN(C)CC4)cc3)nc21 | 221 to 222 °C
35 | CC(C)COC(=O)Oc1ccc2c(c1)OCN(CCO[N+](=O)[O-])C2=O | 82 to 84 °C
36 | O=[N+]([O-])c1ccc(Oc2ccc(N3CCN(c4ccncc4)CC3)cc2)nc1 | 174 to 175 °C
37 | O=[N+]([O-])c1cnccc1NCC(O)CO (centres undefined) | 131 to 135 °C
38 | Cc1c2ccc(-c3nn(C(C)c4oc5ccccc5c(=O)c4-c4cccc(F)c4)c4ncnc(N)c34)cc2nn1C (centres undefined) | 269 to 274 °C
39 | CC1CCOC(CBr)(c2ccc(Cl)cc2Cl)O1 (centres undefined) | 69 to 70.5 °C
40 | Oc1cccc2c1c1cccc(Cl)c1n2Cc1ccc(F)cc1 | 142 to 145 °C
41 | CC1CCc2nc(=O)c(C(N)=O)cn21 (centres undefined) | 223 °C
42 | Nc1nnn(CC(F)(F)F)n1 | 95 to 97 °C

More lines, now with the values ahead:

Row | melting point | SMILES
43 | 168 to 169 °C | Cc1nc2c(Cl)c(NC(=O)c3ccc(-c4ccccc4)cc3)ccc2s1
44 | 103 to 105 °C | CCOC(=O)c1ccccc1CN1C(=O)C(CCOc2ccc(CCNC(=O)OC(C)(C)C)cc2)Oc2ccccc21 (centres undefined)
45 | 185 to 190 °C | CC(C)(C)C(=O)C(Cl)Oc1ccc(-c2ccccc2)cc1 (centres undefined)
46 | 62 to 66 °C | CO[C@]1(c2cccc(OCc3ccc4c(ccc(=O)n4C)c3)c2)CCOC[C@H]1O (racemic)
47 | 166 to 168 °C | COC(=O)Cn1c(C(=O)Nc2nc(-c3cc(OC)c(Cl)cc3OC)c(CCC3CCCCC3)s2)c(C)c2cc(C)ccc21
48 | 200 to 201 °C | COC(=O)C(C)(C)c1ccc(C(=O)Nc2cn3cc(-c4ccsc4)ccc3n2)cc1
49 | 141 to 143 °C | COC(=O)c1nc(-c2ccc(Cl)c(OC)c2F)cc(N)c1Cl
50 | > 275 °C | Cc1ccc(S(=O)(=O)Nc2cccc(-c3nnc(-c4ccc(C(=O)O)cc4)o3)c2)cc1
51 | 118 °C | OC(c1ccccc1)c1ccc2cccnc2c1 (centres undefined)
52 | 84 to 87 °C | CCOC(=O)C(O)c1cc(F)cc2cccnc12 (centres undefined)
53 | 166 to 167 °C | COC(=O)Cn1c(=O)[nH]c(=O)n(-c2cc(Oc3ccc(C(F)(F)F)c(Cl)c3)ccc2[N+](=O)[O-])c1=O
54 | 161 to 162 °C | CCSc1cccc(-c2nc(=O)c3ccccc3s2)n1
55 | 119 to 120 °C | COC(=O)CC(NC(=O)OC(C)(C)C)c1ccc(O)cc1 (centres undefined)
56 | 195 to 196 °C | Cc1cc(C(F)(F)C(F)(F)F)ccc1NC(=O)c1cccc(I)c1C(=O)NC(C)C
57 | 160 to 163 °C | O=C1CN(C(c2ccccc2)c2ccccc2)N1
58 | 160 °C | C#CCN1CCCc2ccc(OC(=O)Nc3ccc(Cl)cc3)cc21
59 | 247 to 250 °C | CCOC(=O)c1ccc(Nc2cc(C)nc3cn[nH]c23)cc1
60 | 89.5 °C | CC(=O)CC(=O)Nc1ccc(Nc2ccccc2)cc1
61 | 88 to 90 °C | COc1ccc(-c2cccc(COCCc3cccc(NS(=O)(=O)C(F)(F)F)c3)c2)cc1

Row | melting point | SMILES
62 | 241 to 243 °C | Nc1c(-c2ccc(Cl)cc2)nc2ccc(F)cc2c1C(=O)O
63 | 200 to 201 °C | Cc1cc(C)c(Nc2nc(C)ccc2S(=O)(=O)c2ccc(OCc3csc(C)n3)cc2)c(C)c1
64 | 185 °C | O=C(c1ccc(F)c(Cc2ccc(=O)[nH]n2)c1)c1c(Cl)cc(Cl)cc1Cl
65 | 238 to 242 °C | CC(=O)Oc1cc(C)c(C)c(C)c1C1(OC(C)=O)C(=O)c2ccccc2C1=O
66 | 213 to 215 °C | O=c1cc(CCO)c2ccccc2[nH]1
67 | 95 °C | CC(C)(C)c1ccc(S(=O)(=O)/C=C/c2ccccc2)cc1
68 | 120 to 121 °C | CCOC(=O)C(C)Cc1cccc(-c2nc(=O)c3ccccc3s2)n1 (centres undefined)
69 | 170 to 171 °C | CCCn1ccc2c(NCCc3ccc(O)cc3)cccc2c1=O
70 | 98 to 100 °C | CNC(=O)/C(=N/OC)c1ccccc1Oc1ccc(C)c(C)c1
71 | 310 to 312 °C | Cc1ccc(F)cc1C(=O)Nc1ccc(C(=O)N2CCc3cn[nH]c3-c3sccc32)c(Cl)c1
72 | 108 to 110 °C | COc1ccc2c(OC)c(C(C)C)cc(Br)c2c1
73 | 125 to 126 °C | COc1ccc(CCN(CCc2cccc(C(F)(F)F)c2)C(=O)CCCCC(N)=O)cc1OC
74 | 138 °C | CCCCc1nc2cc3ccccc3cc2n1Cc1ccc(C#N)cc1
75 | 116 °C | CCCCN(CCCC)CCOc1ccc(C(=O)c2c(CC)cc3ccccn23)cc1
76 | 98 to 100 °C | COC(=O)C(C)(C)OCC#Cc1cc(C(F)(F)F)ccc1NS(=O)(=O)c1ccc2c(c1)OCCN2C
77 | 252 to 255 °C | Cc1ccccc1-c1c(Cn2cnc3c(N)ncnc32)oc2ccc(Br)cc2c1=O
78 | 104 to 106 °C | CC(C)(C)OC(=O)N1C[C@@H](Oc2ccc(N)cc2)C[C@@H]1C(=O)Nc1cc(C(C)(C)C)c(O)c(C(C)(C)C)c1
79 | 129 to 130 °C | CC(C)Cn1c(CN)c(-c2ccccc2)c2cc(Br)ccc2c1=O
80 | 77 °C | O=S(=O)(NCCCCC1Cc2ccccc2C1)c1ccc(Cl)cc1

Row | melting point | SMILES
81 | 69 to 71 °C | CCOc1ccc(C)c(NCc2ccccc2)c1
82 | 98 to 100 °C | N#Cc1ccc(C(=O)c2ccccc2S)cc1
83 | 247 to 248 °C | CCc1ccc2c(C3=C(c4cn(C)c5ccccc45)C(=O)NC3=O)cn(C)c2c1
84 | 210 to 211 °C | O=C(O)C1CCc2c(c3ccccc3n2C(=O)c2ccc(Cl)cc2)C1 (centres undefined)
85 | 186 to 189 °C | COc1cccc(P(=O)(c2ccccc2)c2ccccc2)c1I
86 | 32 to 34 °C | COC(=O)C#CC(=O)c1cccc(OC)c1
87 | 74 to 75 °C | CS(=O)(=O)OCCCc1ccc(OCc2ccccc2)cc1
88 | 178 to 180 °C | COc1cc(OC)c2c(=O)[nH]c(-c3ccc(OCCNC(C)C)c(-c4ccccc4S(C)(=O)=O)n3)nc2c1
89 | 174 to 176 °C | CC(=O)c1ccc(Nc2c3ccccc3nc3occ(Cl)c23)cc1
90 | 193 to 195 °C | CCOC(=O)c1cnn(C)c1C(=O)Nc1ccn2nc(N(C)C)nc2c1
91 | 82 °C | CCOC(=O)c1nn(Cc2ccc(Cl)cc2Cl)c(-c2ccc(Cl)cc2)c1C
92 | 126 to 129 °C | COc1ccc(C2=NN(CCCCCN3C(=O)c4ccccc4C3=O)C(=O)[C@H]3CC=CC[C@@H]23)cc1OC (relative stereo)
93 | 69 °C | CCOC(=O)CC(=O)C=Cc1ccc(OC)cc1
94 | 202 to 205 °C | O=C(O)CCCCN(Cc1ccccc1)Cc1ccccc1
95 | 186 to 187 °C | COCc1nc2c(NCc3c(C)cccc3C)cc(C(=O)NCCO)cc2n1C
96 | 188 to 190 °C | COC(=O)C(Cc1ccccc1)Oc1ccc2cc(-c3cnc(-c4cn(Cc5ccccc5)c5ccccc45)o3)ccc2c1 (centres undefined)
97 | 144 to 145 °C | CCOC(=O)C1=C(C)NC(CN2C(=O)c3ccccc3C2=O)=C(C(=O)OCC)C1c1ccc(F)cc1 (centres undefined)
98 | 164 to 166 °C | O=C(O)C(O)c1ccc2ccccc2c1 (racemic)
99 | 126 to 130 °C | CC(=O)Oc1ccc(C)cc1[C@H](CCN(C(C)C)C(C)C)c1ccccc1
